Ends that are not written are not given here. Peptide text beside a SMILES is read from it.

The target in test [1] is T1, human PTHR, G protein-uncoupled conformation (R^0) (Homo sapiens, UniProt Q03431).
T1 construct: expressed in transfected cells; host or cells: COS-7, transient (Fugene-6)
T1 sequence (Q03431 27-593): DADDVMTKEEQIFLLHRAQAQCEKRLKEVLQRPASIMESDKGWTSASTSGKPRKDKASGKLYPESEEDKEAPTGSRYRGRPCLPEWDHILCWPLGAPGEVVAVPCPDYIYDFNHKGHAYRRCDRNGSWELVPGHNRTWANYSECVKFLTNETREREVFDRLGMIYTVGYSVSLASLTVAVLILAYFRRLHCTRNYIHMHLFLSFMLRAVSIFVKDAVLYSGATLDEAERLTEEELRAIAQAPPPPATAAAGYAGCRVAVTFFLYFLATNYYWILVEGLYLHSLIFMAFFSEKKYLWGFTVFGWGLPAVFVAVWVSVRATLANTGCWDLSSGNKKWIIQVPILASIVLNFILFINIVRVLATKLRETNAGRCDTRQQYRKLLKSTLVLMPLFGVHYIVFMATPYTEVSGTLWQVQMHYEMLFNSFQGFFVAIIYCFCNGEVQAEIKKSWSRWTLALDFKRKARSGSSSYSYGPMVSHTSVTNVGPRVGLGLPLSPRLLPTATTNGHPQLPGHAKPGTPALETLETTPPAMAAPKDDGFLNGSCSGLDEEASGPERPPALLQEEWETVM
In words: Competition binding to R0 conformation of hPTHR (COS-7 membranes, GTPγS, 125I-PTH(1-34) tracer). To be noted: human PTH receptor on COS-7 cell membranes. Here is the method: Membranes were prepared from COS-7 cells transfected with the hPTHR alone. GTPγS ([…]) was added to the binding reactions so as to functionally uncouple receptor-heterotrimeric G protein complexes, thus enriching for the R^0 (and R) conformations, relative to RG.
Reactions contained a total membrane protein concentration of 20 to 100 μg/mL, and a total radioactivity concentration of approximately 150,000 cpm/ml. Unlabeled peptide ligands and/or GTPγS (Sigma-Aldrich Inc. St. Louis, Mo.) were added to the reactions as indicated.
Membranes, tracer radioligand, and various concentrations of unlabeled ligands and/or GTPγS were incubated in the wells for 90 minutes, following which, the reaction plates were processed by rapid vacuum filtration to separate bound from free radioligand, as described above. […] For both radioligands, the non-specific binding was determined in reactions containing a saturating concentration of the unlabeled analog of the radioligand. The specifically bound radioactivity was calculated as a percent of the radioactivity specifically bound in the absence of a competing ligand or GTPγS.
To assess the capacities of various unlabeled peptide ligands to bind to the G protein-uncoupled and G protein-coupled PTHR conformations (R^0 and RG, respectively), membranes were prepared from transiently transfected COS-7 cells and the following assay conditions.

Test [2] deals with LLCPK1-B64 cells or SaOS-2 cells. In words: cAMP screen of substituted PTHrP(1-28) analogs (% parent). The test is classed as cell-based. Particulars: parent PTHrP(1-28)NH. Here is the method: Alanine substitution at position 18, 22, 25 and 26 increased activity in at least one cell type. These positions were further substituted to various types of amino acids, and cAMP activity was analyzed in LLCPK1-B64 cells (FIG. 27C) or SaOS-2 cells (FIG. 27D). Cells were treated with analogs at 3×10^−9M in the presence of IBMX for 30 minutes at room temperature. Responses for each analog were normalized to the response for the parent (native) PTHrP(1-28) peptide. Alanine substitutions were A^15 to A^17 (SEQ ID NO:152-154), A^18 (SEQ ID NO:34), A^19 to A^21 (SEQ ID NO:155-157), A^22 (SEQ ID NO:39), A^23 to A^25 (SEQ ID NO:158-160), A^26 (SEQ ID NO:46), and A^27 to A^28 (SEQ ID NO:161-162). Substitutions at position 18 were A^18 (SEQ ID NO: 34), G^18 (SEQ ID NO:163), S^18 (SEQ ID NO:35), M^18 (SEQ ID NO:36), L^18 (SEQ ID NO:164), F^18 (SEQ ID NO:37), N^18 (SEQ ID NO:165), E^18 (SEQ ID NO:38), and K^18 (SEQ ID NO:166). Substitutions at position 22 were A^22 (SEQ ID NO:39), G^22 (SEQ ID NO:167), and S^22 to K^22 (SEQ ID NO:40-45). Substitutions at position 26 were A^26 (SEQ ID NO:46), G^26 (SEQ ID NO:168), S^26 (SEQ ID NO:47), L^26 (SEQ ID NO:169), N^26 (SEQ ID NO:48), W^26 to E^26 (SEQ ID NO:170-171), and K^26 to R^26 (SEQ ID NO:49-50). Substitutions at position 25 were G^25 to S^25 (SEQ ID NO:172-173), L^25 (SEQ ID NO:51), N^25 (SEQ ID NO:174), W^25 (SEQ ID NO:52), E^25 (SEQ ID NO:175), and K^25 to R^25 (SEQ ID NO:53-54). […]

As to `CC[C@H](C)[C@H](NC(=O)[C@H](CCC(=O)O)NC(=O)[C@H](C)NC(=O)[C@@H](NC(=O)[C@H](C)N)C(C)C)C(=O)N[C@@H](CCC(N)=O)C(=O)N[C@@H](CC(C)C)C(=O)N[C@@H](CCSC)C(=O)N[C@@H](Cc1c[nH]cn1)C(=O)N[C@@H](CCC(N)=O)C(=O)N[C@@H](CCCNC(=N)N)C(=O)N[C@@H](C)C(=O)N[C@@H](CCCCN)C(=O)N[C@@H](Cc1c[nH]c2ccccc12)C(=O)N[C@@H](CC(C)C)C(=O)N[C@@H](CC(N)=O)C(=O)N[C@@H](CO)C(=O)N[C@@H](CCSC)C(=O)N[C@@H](CCCNC(=N)N)C(=O)N[C@@H](C)C(=O)N[C@H](C(=O)N[C@@H](CCC(=O)O)C(=O)N[C@@H](Cc1c[nH]c2ccccc12)C(=O)N[C@@H](CC(C)C)C(=O)N[C@@H](CCCNC(=N)N)C(=O)N[C@@H](CCCCN)C(=O)N[C@@H](CCCCN)C(=O)N[C@@H](CC(C)C)C(=O)N[C@@H](CCC(N)=O)C(=O)N[C@@H](CC(=O)O)C(=O)N[C@H](C(=O)N[C@@H](Cc1c[nH]cn1)C(=O)N[C@@H](CC(N)=O)C(=O)N[C@@H](Cc1ccccc1)C(=O)O)C(C)C)C(C)C` [A20,Mc-PTH(1-34)OH, A^20,Mc-PTH(1-34)OH] (H-AVAEIQLMHQRAKWLNSMRAVEWLRKKLQDVHNF-OH; N-terminus assumed), in test [1], the R0/RG ratio amounted to 80.
With “A18,22,F25,K26-PTHrP(1-28) (AVSEHQLLHDKGKSIQDARRRAFLFKLI-NH2) [A18, 22, F25, K26-PTHrP(1-28)NH]”, the “screen cAMP (% parent)” value in test [2] stood at 337 % parent.
Turning to “A18,22,I25,K26-PTHrP(1-28) (AVSEHQLLHDKGKSIQDARRRAFLIKLI-NH2) [A18, 22, I25, K26-PTHrP(1-28)NH]”, in test [2], the “screen cAMP (% parent)” value was determined as 342 % parent.
The same measure, in the same setting: in the case of “A18,22,W25,K26-PTHrP(1-28) (AVSEHQLLHDKGKSIQDARRRAFLWKLI-NH2) [A18, 22, W25, K26-PTHrP(1-28)NH]” it was 329 % parent; in that of “A18-PTHrP(1-28) (AVSEHQLLHDKGKSIQDARRRFFLHHLI-NH2) [A18-PTHrP(1-28)NH]”, 164 % parent.
The same measure, in the same setting: in the case of “A22-PTHrP(1-28) (AVSEHQLLHDKGKSIQDLRRRAFLHHLI-NH2) [A22-PTHrP(1-28)NH]” it was 185 % parent.
Regarding “A26-PTHrP(1-28) (AVSEHQLLHDKGKSIQDLRRRFFLHALI-NH2) [A26-PTHrP(1-28)NH]”, in test [2], the “screen cAMP (% parent)” value was found to be 142 % parent.
For the molecule “E18,A22,26-PTHrP(1-28) (AVSEHQLLHDKGKSIQDERRRAFLHALI-NH2) [E18, A22, 26-PTHrP(1-28)NH]”, in test [2], the “screen cAMP (% parent)” value is 190 % parent.
Regarding “E18,S22,K25,26-PTHrP(1-28) (AVSEHQLLHDKGKSIQDERRRSFLKKLI-NH2) [E18, S22, K25, 26-PTHrP(1-28)NH]”, the “screen cAMP (% parent)” value in test [2] came out at 335 % parent.
Still for that read-out and setting: in the case of “E18-PTHrP(1-28) (AVSEHQLLHDKGKSIQDERRRFFLHHLI-NH2) [E18-PTHrP(1-28)NH]” it was 140 % parent; in that of “E22-PTHrP(1-28) (AVSEHQLLHDKGKSIQDLRRREFLHHLI-NH2) [E22-PTHrP(1-28)NH]”, 121 % parent; in that of “F18-PTHrP(1-28) (AVSEHQLLHDKGKSIQDFRRRFFLHHLI-NH2) [F18-PTHrP(1-28)NH]”, 109 % parent.
Still for that read-out and setting: in the case of “K22-PTHrP(1-28) (AVSEHQLLHDKGKSIQDLRRRKFLHHLI-NH2) [K22-PTHrP(1-28)NH]” it was 150 % parent; in that of “K25-PTHrP(1-28) (AVSEHQLLHDKGKSIQDLRRRFFLKHLI-NH2) [K25-PTHrP(1-28)NH]”, 163 % parent.
For the molecule “K26-PTHrP(1-28) (AVSEHQLLHDKGKSIQDLRRRFFLHKLI-NH2) [K26-PTHrP(1-28)NH]”, in test [2], the “screen cAMP (% parent)” value is given as 142 % parent.
Same read-out and setting: in the case of “L22-PTHrP(1-28) (AVSEHQLLHDKGKSIQDLRRRLFLHHLI-NH2) [L22-PTHrP(1-28)NH]” it was 142 % parent; in that of “L25-PTHrP(1-28) (AVSEHQLLHDKGKSIQDLRRRFFLLHLI-NH2) [L25-PTHrP(1-28)NH]”, 325 % parent.
On to “M18-PTHrP(1-28) (AVSEHQLLHDKGKSIQDMRRRFFLHHLI-NH2) [M18-PTHrP(1-28)NH]”, for which the “screen cAMP (% parent)” value in test [2] came to 113 % parent.
For “N22-PTHrP(1-28) (AVSEHQLLHDKGKSIQDLRRRNFLHHLI-NH2) [N22-PTHrP(1-28)NH]”, the “screen cAMP (% parent)” value in test [2] was 138 % parent.
On the same count and under the same terms, in the case of “N26-PTHrP(1-28) (AVSEHQLLHDKGKSIQDLRRRFFLHNLI-NH2) [N26-PTHrP(1-28)NH]” it was 113 % parent; in that of “R25-PTHrP(1-28) (AVSEHQLLHDKGKSIQDLRRRFFLRHLI-NH2) [R25-PTHrP(1-28)NH]”, 204 % parent; in that of “R26-PTHrP(1-28) (AVSEHQLLHDKGKSIQDLRRRFFLHRLI-NH2) [R26-PTHrP(1-28)NH]”, 143 % parent.
Still for that read-out and setting: in the case of “S18-PTHrP(1-28) (AVSEHQLLHDKGKSIQDSRRRFFLHHLI-NH2) [S18-PTHrP(1-28)NH]” it was 121 % parent; in that of “S22-PTHrP(1-28) (AVSEHQLLHDKGKSIQDLRRRSFLHHLI-NH2) [S22-PTHrP(1-28)NH]”, 141 % parent.
Still for that read-out and setting: in the case of “S26-PTHrP(1-28) (AVSEHQLLHDKGKSIQDLRRRFFLHSLI-NH2) [S26-PTHrP(1-28)NH]” it was 107 % parent.
For “W22-PTHrP(1-28) (AVSEHQLLHDKGKSIQDLRRRWFLHHLI-NH2) [W22-PTHrP(1-28)NH]”, in test [2], the “screen cAMP (% parent)” value is recorded as 129 % parent.
As for “W25-PTHrP(1-28) (AVSEHQLLHDKGKSIQDLRRRFFLWHLI-NH2) [W25-PTHrP(1-28)NH]”, the “screen cAMP (% parent)” value in test [2] was found to be 270 % parent.

(Values after US9057727B2, “Screening methods using G-protein coupled receptors and related compositions” (The General Hospital Corporation, priority 2007, dated 2015).)
